Laboratory results as given in patent US8563253B2, “Means and method for diagnosing hemolytic anemia” (priority 2006, dated 2013).

Tested on: rats
Assay: Plasma metabolite profiling (GC-MS/LC-MS) of rats treated with aniline; biomarkers for aniline-inducible hemolytic anemia
Format: in vivo, rat
Description: A group of each 5 male and female rats was dosed once daily with aniline at 10 and 100 mg/kg body weight per gavage over 28 days. Additional groups of each 5 male and female animals served as controls. Before starting the treatment period, animals, which were 62-64 days old when supplied, were acclimatized to the housing and environmental conditions for 7 days. All animals of the animal population were kept under the same constant temperature (20-24±3° C.) and the same constant humidity (30-70%). Each animal of the animal population was kept in a separate cage. The animals of the animal population are fed ad libitum. The food to be used was be essentially free of chemical or microbial contaminants. Drinking water was also offered ad libitum. Accordingly, the water was be free of chemical and microbial contaminants as laid down in the European Drinking Water Directive 98/83/EG. The illumination period was 12 hours light followed by 12 hours darkness (12 hours light, from 6:00 to 18:00, and 12 hours darkness, from 18:00 to 6:00).
In the morning of day 7, 14, and 28, blood was taken from the retroorbital venous plexus from fasted anaesthetized animals. From each animal, 1 ml of blood was collected with EDTA as anticoagulant. The samples were be centrifuged for generation of plasma. All plasma samples were covered with a N2 atmosphere and then stored at −80° C. until analysis.
For mass spectrometry-based metabolite profiling analyses plasma samples were extracted and a polar and a non-polar fraction was obtained. For GC-MS analysis, the non-polar fraction was hydrolyzed under acidic conditions to yield the fatty acid methyl esters. Both fractions were further derivatised with a silylating agent before analysis. In LC-MS analysis, both fractions were reconstituted in appropriate solvent mixtures. HPLC was performed by gradient elution on reversed phase separation columns. For mass spectrometric detection metanomics proprietary technology was applied which allows target and high sensitivity MRM (Multiple Reaction Monitoring) profiling in parallel to a full screen analysis. […] Moreover, several hundred further analytes giving a fingerprint of the sample are included in the methods.
Following comprehensive analytical validation steps, the data for each analyte were normalized against data from pool samples. These samples were run in parallel through the whole process to account for process variability. The significance of treatment group values specific for sex, dose group and metabolite was determined by comparing means of the treated groups to the means of the respective untreated control groups using Student's t-test. Normalized treatment group values and their significance were fed into a database for further statistics and data mining processes.
The changes of the group of plasma metabolites being indicative for hemolytic anemia after treatment of rats with aniline are shown in the following table: […]

[1] = female rats, day 7, 100 mg/kg body weight/day by gavage
[2] = female rats, day 14, 100 mg/kg body weight/day by gavage
[3] = female rats, day 28, 100 mg/kg body weight/day by gavage
[4] = male and female rats, 100 mg/kg body weight/day by gavage for 28 days
[5] = male rats, day 7, 100 mg/kg body weight/day by gavage
[6] = male rats, day 14, 100 mg/kg body weight/day by gavage
[7] = male rats, day 28, 100 mg/kg body weight/day by gavage

Q: `Nc1ccccc1` [aniline] was tested. Which “11-desoxycortisol, fold change against controls” value (shortened to “11-desoxycortisol, fold change”) [1] did it give?
A: The value was 0.39 fold.

Q: What about the “18-hydroxycorticosterone, fold change against controls” value (“18-hydroxycorticosterone, fold change” below) [1] of the same molecule?
A: The value was 0.43 fold.

Q: And the “cytosine, fold change against controls” value [1]?
A: Its value is 1.81 fold.

Q: And the “ribal (1,4-anhydro-2-deoxy-D-erythro-pent-1-enitol) (=MetID 407), fold change against controls” value (“ribal … fold change against controls” for short) [1]?
A: The value was 1.79 fold.

Q: And the “11-desoxycortisol, fold change” value [2]?
A: The value was 0.71 fold.

Q: And the “18-hydroxycorticosterone, fold change” value [2]?
A: The value was 0.71 fold.

Q: And the “cytosine, fold change against controls” value [2]?
A: The value was 1.18 fold.

Q: And the “ribal … fold change against controls” value [2]?
A: The value was 1.66 fold.

Q: And the “11-desoxycortisol, fold change” value [3]?
A: Its value is 0.41 fold.

Q: What about the “18-hydroxycorticosterone, fold change” value [3] of the same molecule?
A: Its value is 0.47 fold.

Q: And the “cytosine, fold change against controls” value [3]?
A: The value was 1.38 fold.

Q: And the “ribal … fold change against controls” value [3]?
A: Its value is 1.59 fold.

Q: And the “Regulation of 11-desoxycortisol” value [4]?
A: Its value is “down”.

Q: What about the “Regulation of 18-hydroxycorticosterone” value [4] of the same molecule?
A: The value was “down”.

Q: And the Regulation of cytosine [4]?
A: Its Regulation of cytosine is “up”.

Q: And the “Regulation of ribal (1,4-anhydro-2-deoxy-D-erythro-pent-1-enitol) (=MetID 407)” value [4]?
A: Its value is “up”.

Q: What about the “11-desoxycortisol, fold change” value [5] of the same molecule?
A: Its value is 0.47 fold.

Q: And the “18-hydroxycorticosterone, fold change” value [5]?
A: Its value is 0.34 fold.

Q: What about the “cytosine, fold change against controls” value [5] of the same molecule?
A: The value was 1.50 fold.

Q: And the “ribal … fold change against controls” value [5]?
A: The value was 1.68 fold.

Q: What about the “11-desoxycortisol, fold change” value [6] of the same molecule?
A: The value was 0.48 fold.

Q: What about the “18-hydroxycorticosterone, fold change” value [6] of the same molecule?
A: The value was 0.33 fold.

Q: What about the “cytosine, fold change against controls” value [6] of the same molecule?
A: Its value is 1.17 fold.

Q: What about the “ribal … fold change against controls” value [6] of the same molecule?
A: The value was 1.42 fold.

Q: And the “11-desoxycortisol, fold change” value [7]?
A: The value was 0.27 fold.

Q: What about the “18-hydroxycorticosterone, fold change” value [7] of the same molecule?
A: Its value is 0.18 fold.

Q: And the “cytosine, fold change against controls” value [7]?
A: Its value is 1.71 fold.

Q: And the “ribal … fold change against controls” value [7]?
A: Its value is 1.82 fold.
